Assay results from patent US11760756B2, “Crystalline form of a PD-1/PD-L1 inhibitor” (Incyte Corporation, priority 2020, dated 2023).

Experiments:
Type in all cases: physicochemical
[1] = solid state form stability under water, humidity and drying conditions
Experimental: (§1) Form I is a non-solvate and non-hydrate crystalline form. On DSC, it first undergoes dehydration at below 125° C. followed by melting at around 148-160° C. […] On TGA, approximately 2.4% weight loss is observed at below 120° C., which is mainly due to dehydration. The compound decomposes above 160° C. after melting. Like the amorphous powder of Compound 1 drug substance, this non-solvate and non-hydrate crystalline form (Form I) is hygroscopic. […] It decomposes above 160° C. after melting. During water dynamic vapor sorption (DVS) analysis of this non-solvate and non-hydrate crystalline form (Form I), approximately 6.5% of water was absorbed at 80% RH and 25° C. for this crystalline form and the sample was pre-dried at 50° C. under dried nitrogen (N2) for 1 hour before the DVS analysis. For comparison, approximately 12% of water was absorbed at 80% RH and 25° C. for the amorphous powder.
(§2) Like the amorphous powder of Compound 1 drug substance, this meta-stable non-solvate crystalline form (Form IV) is hygroscopic. During water dynamic vapor sorption (DVS) analysis of this non-solvate crystalline form (Form IV), approximately 8.2% of water was absorbed at 80% RH and 25° C. for this crystalline form and the sample was pre-dried at 25° C. under dried nitrogen (N2) for 1 hour before the DVS analysis.

[2] = water dynamic vapor sorption (DVS) analysis; conditions: for water absorbed (DVS): 80% RH and 25° C., sample pre-dried under dried nitrogen for 1 hour (Form I at 50° C., Form IV at 25° C.)
Experimental: as §1, §2

[3] = Thermogravimetric Analysis (TGA), decomposition; conditions: ramp from 25° C. to 300° C. at 10° C./min
Source text: X-Ray Powder Diffraction (XRPD): Compound 1 crystalline forms were characterized by XRPD. The X-Ray Powder Diffraction (XRPD) was obtained from Bruker D8 Advance ECO X-ray Powder Diffractometer (XRPD) instrument. The general experimental procedures for XRPD were: (1) X-ray radiation from copper at 1.5418 Å and LYNXEYE™ detector; (2) X-ray power at 40 kV, 25 mA; and (3) the sample powder was dispersed on a zero-background sample holder. The general measurement conditions for XRPD were: Start Angle 3 degrees; Stop Angle 30 degrees; Sampling 0.015 degrees; and Scan speed 2 degree/min. Differential Scanning calorimetry (DSC): Compound 1 crystalline forms were characterized by DSC. The DSC was obtained from TA Instruments Differential Scanning calorimetry, Discovery DSC2500 with auto sampler. The DSC instrument conditions were as follows: 20-300° C. at 10° C./min; Tzero aluminum sample pan and lid; and nitrogen gas flow at 50 mL/min. Thermogravimetric Analysis (TGA): Compound 1 crystalline forms were also characterized by TGA. The TGA was obtained from TA Instruments Thermogravimetric Analyzer, Discovery TGA5500 with auto sampler. The general experimental conditions for TGA were: ramp from 25° C. to 300° C. at 10° C./min; nitrogen purge gas flow at 25 mL/min; platinum sample holder.

Structure (SMILES) | hygroscopicity [2] | water absorbed (DVS) [2] | crystalline form change in the solid state after the DVS analysis [2] | decomposition temperature (TGA) [3] | other results
Cc1c(Nc2nccc3cc(CN4CC[C@@H](O)C4)cnc23)cccc1-c1cccc(-c2nc3cc(CN4CC[C@@H](C(=O)O)C4)cc(C#N)c3o2)c1C [Form I, (R)-1-((7-cyano-2-(3′-(3-(((R)-3-hydroxypyrrolidin-1-yl)methyl)-1,7-naphthyridin-8-ylamino)-2,2′-dimethylbiphenyl-3-yl)benzo[d]oxazol-5-yl)methyl)pyrrolidine-3-carboxylic acid] | hygroscopic | approximately 6.5% | No crystalline form change was observed | above 160 °C | change in solid state form / hydrate formation ([1]; after stirring in water at ambient temperature for overnight): no change in solid state form; change in solid state form / hydrate formation ([1]; cycling from 5% RH to 95% RH and back to 5% RH at 25° C. and 5% RH interval): no change in solid state form; change in solid state form / hydrate formation ([1]; drying under dry nitrogen gas (N2) at 25° C. for one day): no change in solid state form; change in solid state form / hydrate formation ([1]; humidifying under 95% RH/25° C. for three days): no change in solid state form; thermodynamic stability of the crystalline form ([1]; under the current investigated process conditions): thermodynamically most stable crystalline form
Cc1c(Nc2nccc3cc(CN4CC[C@@H](O)C4)cnc23)cccc1-c1cccc(-c2nc3cc(CN4CC[C@@H](C(=O)O)C4)cc(C#N)c3o2)c1C [Form II, (R)-1-((7-cyano-2-(3′-(3-(((R)-3-hydroxypyrrolidin-1-yl)methyl)-1,7-naphthyridin-8-ylamino)-2,2′-dimethylbiphenyl-3-yl)benzo[d]oxazol-5-yl)methyl)pyrrolidine-3-carboxylic acid] |  |  |  | above 170 °C | 
Cc1c(Nc2nccc3cc(CN4CC[C@@H](O)C4)cnc23)cccc1-c1cccc(-c2nc3cc(CN4CC[C@@H](C(=O)O)C4)cc(C#N)c3o2)c1C [Form III, (R)-1-((7-cyano-2-(3′-(3-(((R)-3-hydroxypyrrolidin-1-yl)methyl)-1,7-naphthyridin-8-ylamino)-2,2′-dimethylbiphenyl-3-yl)benzo[d]oxazol-5-yl)methyl)pyrrolidine-3-carboxylic acid] |  |  |  | above 160 °C | 
Cc1c(Nc2nccc3cc(CN4CC[C@@H](O)C4)cnc23)cccc1-c1cccc(-c2nc3cc(CN4CC[C@@H](C(=O)O)C4)cc(C#N)c3o2)c1C [Form IV, (R)-1-((7-cyano-2-(3′-(3-(((R)-3-hydroxypyrrolidin-1-yl)methyl)-1,7-naphthyridin-8-ylamino)-2,2′-dimethylbiphenyl-3-yl)benzo[d]oxazol-5-yl)methyl)pyrrolidine-3-carboxylic acid] | hygroscopic | approximately 8.2% | No crystalline form change was observed | above 140 °C | crystalline form after further drying ([1]; drying on the filter at ambient temperature for 3-6 days, residual THF approximately 0.1 wt %): remained unchanged
Cc1c(Nc2nccc3cc(CN4CC[C@@H](O)C4)cnc23)cccc1-c1cccc(-c2nc3cc(CN4CC[C@@H](C(=O)O)C4)cc(C#N)c3o2)c1C [Form V, (R)-1-((7-cyano-2-(3′-(3-(((R)-3-hydroxypyrrolidin-1-yl)methyl)-1,7-naphthyridin-8-ylamino)-2,2′-dimethylbiphenyl-3-yl)benzo[d]oxazol-5-yl)methyl)pyrrolidine-3-carboxylic acid] |  |  |  | above 160 °C | 
Cc1c(Nc2nccc3cc(CN4CC[C@@H](O)C4)cnc23)cccc1-c1cccc(-c2nc3cc(CN4CC[C@@H](C(=O)O)C4)cc(C#N)c3o2)c1C [amorphous powder, (R)-1-((7-cyano-2-(3′-((3-(((R)-3-hydroxypyrrolidin-1-yl)methyl)-1,7-naphthyridin-8-yl)amino)-2,2′-dimethyl-[1,1′-biphenyl]-3-yl)benzo[d]oxazol-5-yl)methyl)pyrrolidine-3-carboxylic acid] | hygroscopic | approximately 12% |  | above 170 °C | 
